Experimental data as given in patent publication US20070128719A1, “ISOLATION AND EXPANSION OF ANIMAL CELLS IN CELL CULTURES” (TissueTech, Inc., priority 2003, published 2007).

Experiments:
human limbal explants = test: Epithelial outgrowth from human limbal explants cultured on intact AM with kinase inhibitors; format: cell-based; conditions: for epithelial outgrowth: limbal explant on intact AM in SHEM, vs DMSO control
Method: Human AM was provided by Bio-Tissue (Miami, Fla.) and stored at −80° C. before use. AM was devitalized by freezing and thawing and washed three times with HBSS before being fastened onto a 30 mm culture insert, Millicel-CM (which generated an insert with 23 mm diameter covered by AM), and placed in a 6 well plate (Meller, D. and Tseng S C G, Invest Ophthalmol Vis Sci., 40:878-86, 1999).
After removal of excessive sclera, iris, corneal endothelium, conjunctiva, and Tenon's capsule, the limbal ring was separated by a 7.5 mm trephine from donor human corneas. Each limbal ring was rinsed 3 times with SHEM media. The limbal ring was then exposed for 10 min to 1.2 units/ml Dispase II in Mg^2+- and Ca^2+-free HBSS at 37° C. under 95% humidity and 5% CO2. Following three rinses with SHEM medium, each limbal ring was subdivided into two halves and each half further subdivided into 6 pieces of 1×1.5×2.5 mm explants. To eliminate variations of age, sex, and race, explants from the corresponding position of the same donor cornea were selected for the control and the experimental group, respectively. An explant was placed on the center of intact AM or plastic with the epithelial side facing up and cultured in SHEM medium. The experimental group was added with the inhibitor of desired concentration, while the control group was added with the same concentration of DMSO as the vehicle which was used to dissolve each inhibitor. The culture was maintained at 37° C. under 95% humidity and 5% CO2, the medium was changed every other day, and their outgrowth was monitored daily for 17 days using an inverted phase microscope (Nikon, Japan). The outgrowth area was digitized every other day by Adobe Photoshop 5.5 and analyzed by NIH ImageJ 1.30v (NIH, Bethesda, Md.).
All experiments were performed at least in triplicate. Summary data were reported as means±S.D., compiled and analyzed by MicroSoft Excel™ (MicroSoft, Redmont, Wash.). The mean and standard deviation were calculated for each group using the appropriate version of Student's unpaired t-test. Test results were reported as two-tailed p values, where p<0.05 was considered statistically significant.

FKHRL1 = test: Western blot of FKHRL1 phosphorylation in limbal epithelial cells expanded on intact AM; format: cell-based, human
Akt = test: Western blot of Akt phosphorylation in limbal epithelial cells expanded on intact AM; format: cell-based, human
p44/42 MAPK [1] = test: Western blot of p44/42 MAPK phosphorylation in limbal epithelial cells expanded on intact AM; format: cell-based, human
Smad2 = test: Nuclear accumulation of Smad2 in rhesus monkey keratocytes; format: cell-based; conditions: 4 ng/ml added in KSFM for 48 hours (19.3±5.1% in KSFM alone)
From the text: Three rhesus monkeys (Macaca Mulatta), 4 years old, and rabbit and mouse cornea were obtained from an approved tissue-sharing program after euthanasia. An entire anterior corneoscleral segment was removed from the globe by cutting near the limbus with Wescott's scissors. A central cornea was obtained with an 8.0 mm Barron's trephine and immediately transferred to KSFM medium (cat# 17005-042, GIBCO Invitrogen corporation, Carlsbad, Calif.). After removing Descemet's membrane and the corneal endothelium, the corneal epithelium was removed by dispase digestion for 16 h at 4° C. and the remaining corneal stroma was incubated at 37° C. for 16 h in 2.5 ml of DMEM containing 1 mg/ml collagenase A, 20 mM HEPES, 50 μg/ml gentamicin and 1.25 μg/ml amphotericin in a plastic dish. Afterwards, corneal stromal cells were resuspended in 1 ml of KSFM, centrifuged to remove residual matrices, resuspended in KSFM, and seeded on plastic dishes in KSFM or DMEM containing insulin, transferrin, and selenium supplement (DMEM/ITSG) (cat# 41400-045, GIBCO, Carlsbad, Calif.) or 10% FBS (DMEM/10% FBS).
When the primary culture on plastic reached 80% confluence, cells were rendered into single cells by incubation in BSS containing 0.25% trypsin/1 mM EDTA at 37° C. for 1 to 5 minutes, and the enzymatic reaction was stopped by adding soybean-trypsin inhibitor. […]

[2] = tested on: murine limbal epithelial cells; test: Clonal expansion of single cell expanded murine limbal epithelial cells in KSFM; format: cell-based, mouse; conditions: 10 pg/ml and 150 pg/ml; 50 cells/cm^2 in KSFM, 6 days
Method: Single cell expanded murine limbal epithelial cells were seeded at 50 cells/cm^2 in KSFM and cultured for 6 days. […] Cells seeded at 20,000 cells/cm^2 in KSFM became enlarged.

[3] = tested on: Smad-mediated TGF-β signaling; test: Immunolocalization of Smad 2 and Smad 4 in murine keratocytes; format: cell-based, mouse; conditions: 10 ng/ml, cells on plastic in DMEM/ITS (16% without TGF-β1)
Method: Isolation and Culture of Keratocytes on Plastic or AM—Albino mice eyes were enucleated by forceps, washed profusely in PBS, and incubated in DMEM containing 20 mM HEPES, 15 mg/ml dispase II (Roche, Indianapolis, Ind.) and 100 mM sorbitol at 4° C. for 18 h (see Espana et al., Invest Ophthalmol Vis Sci. 44:4275-4281, 2003; Kawakita et al., Invest Ophthalmol Vis Sci. 45:3507-3512, 2004). The entire corneal epithelium loosened by this treatment was subsequently removed by vigorous shaking. Under a dissecting microscope, the corneal stroma was separated from the sclera at the corneoscleral limbus by pressing down the limbus with a 27 G needle while the eye was held with a forcep. Isolated corneal stromas were incubated overnight at 37° C. in DMEM containing 1.25 mg/ml collagenase A (Roche, Indianapolis, Ind.), 50 μg/ml gentamicin and 20 mM HEPES in a non-coated plastic dish until the tissue became “smeared” onto the dish bottom. Digested corneal stromas in collagenase A were centrifuged at 800×g for 5 min. Keratocytes were resuspended in DMEM containing 20 mM HEPES, ITS (5 μg/ml insulin, 5 μg/ml transferrin and 5 ng/ml sodium selenite), 50 μg/ml gentamicin and 1.25 μg/ml amphotericin B with or without 10% FBS. […]

[4] = tested on: murine limbal epithelial progenitor cells; test: α-SMA expression in clonal cultures of murine limbal epithelial progenitor cells; format: cell-based, mouse; conditions: 5 ng/ml in KSFM; low seeding density (500 cells/cm^2)
Method: In clonal cultures of murine limbal epithelial progenitor cells, expression of α-SMA, a marker for myofibroblasts, was not detected when clonally expanded murine limbal epithelial cells were seeded at low density (500 cells/cm^2), but increasingly detected when cells were seeded at the intermediate (5,000 cells/cm^2) and high seeding densities (50,000 cells/cm^2). Cells expressing α-SMA were larger and squamous and could also express p63 in the nucleus. […] Under these conditions, expression of S100A shifted from cytoplasm to the nucleus, signaling of Smad 4 moved from cytoplasm to the nucleus, expression of […] moved from the intercellular junction to the cytoplasm and the perinucleus, the signaling of β-catenin moved from the intercellular junctions to the nucleus), and the signaling of LEF-1 also moved from the cytoplasm to the nucleus.

murine keratocytes = test: α-SMA expression (myofibroblast differentiation) of murine keratocytes; format: cell-based, mouse; conditions: cells on plastic; 5 days of continuous stimulation with TGF-β1
Method: TGF-β1 Challenge and Neutralizing Antibody—To assess whether TGF-β1 affected the cell phenotype, triggered Smad 2 and Smad 4 nuclear translocation, and differentiated keratocytes into myofibroblasts, 10 ng/ml human recombinant TGF-β1 (Sigma, St Louis, Mo.) was added to serum-free DMEM/ITS cells for 3 h or 5 days when cells expanded on AM were passed to 24 well plastic dishes and AM inserts, respectively. In addition, primary keratocytes were seeded and cultured on AM or plastic for 3 days in DMEM/ITS or DMEM/10% FBS for 24 h, of which the latter was treated with or without 10 μg of a monoclonal antibody neutralizing TGF-β1, -β2, and -β3 (R&D Systems, Minneapolis, Minn.) per ml of DMEM medium for 48 h before adenoviral transfection.
To confirm that TGF-β was indeed responsible for Smad signaling in DMEM/10% FBS, a neutralizing antibody to three TGF-β isoforms was added to the plastic cultures. Nuclear translocation of Smad 4 was prevented. […] Thirty-nine percent of cells cultured on plastic differentiated into α-SMA-expressing myofibroblasts, but no cell on AM expressed α-SMA even after 5 days of continuous stimulation with TGF-β1.

p44/42 MAPK [5] = conditions: 10 μM; cited from earlier work
TGF-β1 promoter = test: TGF-β promoter assay in human limbal epithelial cells; format: cell-based
Method: Human corneal fibroblasts were transiently transfected with the aforementioned adenoviral promoter constructs. […] 2, 2005 and entitled “Suppression Of TGF-B Activity By Amniotic Membrane Extracts, Compositions Thereof, And Methods For The Prevention And Suppression Of Scarring And Inflammation” in a dose-dependent manner (from 0.04 to 125 μg/ml) in human corneal fibroblasts. […] The suppressive effect of both AME and HA alone was lost after pretreatment with HAse. […] A similar result was obtained for TGF-βRII promoter activity.

[6] = after 17 days of treatment at 50 μM
[7] = after 17 days of treatment at 10 μM

CCOC(=O)c1ccc2[nH]c3c(OC)c4[nH]c5ccc(C(=O)OCC)cc5c4cc3c2c1 [SR13668]
reduction of the outgrowth rate (human limbal explants; 10 μM, from day 5 to day 11): 50%
reduction of the outgrowth rate (human limbal explants; 10 μM, from day 11 on): 60%
epithelial outgrowth (human limbal explants; 50 μM): completely inhibited
time to re-initiation of outgrowth after switch to fresh medium (human limbal explants; [6]): 2 days
time to reach ~80% confluence after removal of inhibitor (human limbal explants; [6]): 30 days
Thr32 phosphorylation of FKHRL1 (FKHRL1; 50 μM): abolished
phosphorylation of Akt at Thr308 and Ser473 (Akt; 50 μM): abolished
p44/42 MAPK phosphorylation (p44/42 MAPK [1]; 50 μM): did not change

TGF-β1: human recombinant TGF-β1 (Sigma)
percentage of nuclear accumulation of Smad2 (Smad2): 34.7±4.9%
clonal expansion [2]: dose-dependently suppressed
cells with nuclear localization of Smad 4 ([3]; 3 h): 67%
cells with nuclear localization of Smad 4 ([3]; 5 days): 85%
α-SMA expression [4]: upregulated
cells differentiated into α-SMA-expressing myofibroblasts (murine keratocytes): Thirty-nine

O=c1cc(N2CCOCC2)oc2c(-c3ccccc3)cccc12 [LY294002]
epithelial outgrowth (human limbal explants; 5 μM, up to 17 days): not significantly inhibited
epithelial outgrowth (human limbal explants; 10 μM, up to 17 days): not significantly inhibited
time to re-initiation of outgrowth after switch to fresh medium (human limbal explants; [6]): 2 days
time to reach ~80% confluence after removal of inhibitor (human limbal explants; [6]): 30 days

N#CC(=C(/N)Sc1ccccc1N)/C(C#N)=C(\N)Sc1ccccc1N [U0126]
day at which epithelial outgrowth was noted / started (human limbal explants; 10 μM): 8 days
average outgrowth area at day 17 (human limbal explants; 10 μM, day 17): 17.0±3.0 mm^2
epithelial outgrowth (human limbal explants; 10 μM, up to 17 days): almost halted
time to re-initiation of outgrowth after switch to fresh medium (human limbal explants; [7]): 2 days
time to reach ~80% confluence after removal of inhibitor (human limbal explants; [7]): 25 days
p44/42 MAPK phosphorylation in many cells (p44/42 MAPK [5]): completely inhibited
phosphorylation of FKHRL1 at Thr32 (FKHRL1; 10 μM): decreased
phosphorylation of Akt at Ser473 (Akt; 10 μM): decreased
phosphorylation of Akt at Thr308 (Akt; 10 μM): eliminated
phosphorylation of p44/42 MAPK (Thr202 and Tyr204) (p44/42 MAPK [1]; 10 μM): abolished

hyaluronic acid [HA]
suppressive effect on TGF-β1 promoter activity after pretreatment with HAse (TGF-β1 promoter): lost
